# Target: T1, binding of KRAS^G12C to SOS1 (Homo sapiens, UniProt Q07889)
# T1 construct: Tag1 (unspecified)
# T1 sequence (Q07889 1-1333): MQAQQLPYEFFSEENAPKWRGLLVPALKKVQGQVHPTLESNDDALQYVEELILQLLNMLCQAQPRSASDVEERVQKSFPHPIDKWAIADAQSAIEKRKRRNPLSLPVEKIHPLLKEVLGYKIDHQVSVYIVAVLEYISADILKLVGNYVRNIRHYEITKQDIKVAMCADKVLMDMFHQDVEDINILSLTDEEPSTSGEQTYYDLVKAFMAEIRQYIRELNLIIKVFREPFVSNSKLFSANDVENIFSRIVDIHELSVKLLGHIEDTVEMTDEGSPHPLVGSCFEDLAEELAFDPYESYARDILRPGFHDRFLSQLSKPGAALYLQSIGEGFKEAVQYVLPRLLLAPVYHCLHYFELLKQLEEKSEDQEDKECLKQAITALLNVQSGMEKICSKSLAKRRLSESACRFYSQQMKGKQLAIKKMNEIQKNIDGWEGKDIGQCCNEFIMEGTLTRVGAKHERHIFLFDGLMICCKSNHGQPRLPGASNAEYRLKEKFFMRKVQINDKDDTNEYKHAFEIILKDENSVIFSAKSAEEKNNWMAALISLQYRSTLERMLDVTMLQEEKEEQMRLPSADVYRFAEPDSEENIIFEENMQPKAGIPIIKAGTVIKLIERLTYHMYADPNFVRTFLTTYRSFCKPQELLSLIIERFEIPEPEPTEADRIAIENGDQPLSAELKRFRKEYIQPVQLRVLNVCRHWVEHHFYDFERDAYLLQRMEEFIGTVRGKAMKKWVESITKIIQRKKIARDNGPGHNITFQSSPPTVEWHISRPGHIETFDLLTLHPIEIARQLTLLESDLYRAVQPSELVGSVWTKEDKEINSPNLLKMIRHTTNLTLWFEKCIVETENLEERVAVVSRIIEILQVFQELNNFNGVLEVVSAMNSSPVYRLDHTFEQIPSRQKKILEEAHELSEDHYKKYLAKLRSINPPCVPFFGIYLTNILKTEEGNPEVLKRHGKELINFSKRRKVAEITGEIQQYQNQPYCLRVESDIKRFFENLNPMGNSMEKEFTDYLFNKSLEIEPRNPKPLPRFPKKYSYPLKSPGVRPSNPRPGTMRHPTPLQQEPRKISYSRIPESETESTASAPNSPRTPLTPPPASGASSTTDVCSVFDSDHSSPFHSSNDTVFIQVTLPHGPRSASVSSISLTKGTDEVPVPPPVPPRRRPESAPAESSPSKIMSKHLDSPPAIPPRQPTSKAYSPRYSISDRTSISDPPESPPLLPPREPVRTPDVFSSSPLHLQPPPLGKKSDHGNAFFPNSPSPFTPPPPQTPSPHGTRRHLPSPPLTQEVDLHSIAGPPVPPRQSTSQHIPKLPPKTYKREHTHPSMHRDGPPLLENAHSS
# Assay: Inhibition of the binding of KRAS^G12C to SOS1
# Conditions: Tag1-SOS1 / Tag2-KRAS^G12C, 2 h incubation at room temperature; read-out: IC50 (nM), inhibitory activity on the binding of KRAS^G12C to SOS1
# Procedure: • (1) Gradient dilution of the test compounds: 10 mM mother solution (dissolved in 100% DMSO) was added to a 384-well test plate, the final content of DMSO being 0.25%.
# (2) 5 μL of Tag1-SOS1 solution was added to the test plate, and 5 μL of dilution buffer was added to the control group.
# (3) 5 μL of Tag2-KRAS^G12C solution was added to the test plate.
# (4) 10 μL of Anti-Tag1-Tb3+ and Anti-Tag2-XL665 detection solution were added to the test plate. The plate was centrifuged at 1000 rpm for 1 min and incubated at room temperature for 2 h.
# (6) The IC50 values for the compounds were finally calculated using GraphPad Prism software, and a curve was fit and plotted.
# The inhibitory activity of the compounds of the examples of the present invention on the binding of KRAS^G12C enzyme to SOS1 is shown in Table 1.
row,SMILES,IC50 [nM]
1,"COc1cc2nc(C)nc(N[C@H](C)c3cc(C(F)(F)F)ccn3)c2cc1OCCOC1CC1 [Example 36, (R)-6-(2-Cyclopropoxyethyloxy)-7-methoxy-2-methyl-N-(1-(4-(trifluoromethyl)pyridin-2-yl)ethyl)quinazolin-4-amine]",> 1000
2,COCCOc1cc2c(N[C@H](C)c3cc(C(F)(F)C(C)(C)O)ccn3)nc(C)nc2cc1OC [Example 75],40
3,"COCCOCCOc1cc2c(N[C@H](C)c3cc(N)cc(C(F)(F)F)c3)nc(C)nc2cc1OC [Example 50, (R)—N-(1-(3-Amino-5-(trifluoromethyl)phenyl)ethyl)-7-methoxy-6-(2-(2-methoxyethoxy)ethoxy)-2-methylquinazolin-4-amine]",4.2
4,COc1cc2nc(C)nc(N[C@H](C)c3cc(N)cc(C(F)(F)F)c3)c2cc1OCCN(C)S(C)(=O)=O [Example 13],2.5
5,"COc1cc2nc(C)nc(N[C@H](C)c3cc(N)cc(C(F)(F)F)c3)c2cc1OCCN(C)CC1CC(F)(F)C1 [Example 22, (R)—N-(1-(3-amino-5-(trifluoromethyl)phenyl)ethyl)-6-(2-(((3,3-difluorocyclobutyl)methyl)(methyl)amino)ethoxy)-7-methoxy-2-methylquinazolin-4-amine]",7
6,"COc1cc2nc(C)nc(N[C@H](C)c3cccc(C(F)(F)C(C)(C)O)c3F)c2cc1OC[C@H]1COCCO1 [Example 27, 1-(3-((R)-1-((6-(((R)-1,4-Dioxan-2-yl)methoxy)-7-methoxy-2-methylquinazolin-4-yl)amino)ethyl)-2-fluorophenyl)-1,1-difluoro-2-methylpropan-2-ol]",8.5
7,"Cc1nc(N[C@H](C)c2cc(N)cc(C(F)(F)F)c2)c2cc(OCCOC3CC3)c(C(F)(F)F)cc2n1 [Example 45, (R)—N-(1-(3-Amino-5-(trifluoromethyl)phenyl)ethyl)-6-(2-cyclopropoxyethoxy)-2-methyl-7-(trifluoromethyl)quinazolin-4-amine]",167
8,COc1cc2nc(C)nc(N[C@H](C)c3cc(N)cc(C(F)(F)F)c3)c2cc1OCCN(C)CC1CCC1 [Example 10],2.9
9,"COCCOc1cc2c(N[C@H](C)c3cccc(S(N)(=O)=O)c3)nc(C)nc2cc1OC [Example 84, (R)-3-(1-((7-Methoxy-6-(2-methoxyethoxy)-2-methylquinazolin-4-yl)amino)ethyl)benzenes ulfonamide]",18
10,COc1cc2nc(C)nc(N[C@H](C)c3cc(N)cc(C(F)(F)F)c3)c2cc1OC[C@@H]1CCCN1C(C)=O [Example 14],16
11,"COc1cc2nc(C)nc(N[C@H](C)c3cc(N)cc(C(F)(F)F)c3)c2cc1OCCOCC1CC1 [Example 58, (R)—N-(1-(3-Amino-5-(trifluoromethyl)phenyl)ethyl)-6-(2-(cyclopropylmethoxy)ethoxy)-7-methoxy-2-methylquinazolin-4-amine]",5.1
12,COc1cc2nc(C)nc(N[C@H](C)c3cccc(C(F)(F)C(C)(C)O)c3F)c2cc1OC[C@@H]1CN(C)CCO1 [Example 25],3.9

# Continued by falling IC50, values first:
row,IC50 [nM],SMILES
1,170,"COCCOc1cc2c(N[C@H](C)c3cc(OC)cc(C(F)(F)C(C)(C)O)c3)nc(C)nc2cc1OC [Example 87, (R)-1,1-Difluoro-1-(3-methoxy-5-(1-((7-methoxy-6-(2-methoxyethoxy)-2-methylquinazolin-4-yl)amino)ethyl)phenyl)-2-methylpropan-2-ol]"
2,21,"COc1cc2nc(C)nc(N[C@H](C)c3cc(N)cc(C(F)(F)F)c3)c2cc1OC[C@@H]1CCCO1 [Example 39, N—((R)-1-(3-Amino-5-(trifluoromethyl)phenyl)ethyl)-7-methoxy-2-methyl-6-(((S)-tetrahydrofuran-2-yl)methoxy)quinazolin-4-amine]"
3,18,"COc1cc2nc(C)nc(N[C@H](C)c3cc(C(F)(F)F)cc(N)n3)c2cc1OCCOC1COC1 [Example 60, (R)—N-(1-(6-Amino-4-(trifluoromethyl)pyridin-2-yl)ethyl)-7-methoxy-2-methyl-6-(2-(oxetan-3-yloxy)ethoxy)quinazolin-4-amine]"
4,10,"COc1cc2nc(C)nc(N[C@H](C)c3cc(N)cc(C(F)(F)F)c3)c2cc1OCC1(OC)CC1 [Example 46, (R)—N-(1-(3-Amino-5-(trifluoromethyl)phenyl)ethyl)-7-methoxy-6-((1-methoxycyclopropyl)methoxy)-2-methylquinazolin-4-amine]"
5,9.2,"COc1cc2nc(C)nc(N[C@H](C)c3cccc(C(F)(F)C(C)(C)O)c3F)c2cc1OC[C@@H]1COCCO1 [Example 26, 1-(3-((R)-1-((6-(((S)-1,4-Dioxan-2-yl)methoxy)-7-methoxy-2-methylquinazolin-4-yl)amino)ethyl)-2-fluorophenyl)-1,1-difluoro-2-methylpropan-2-ol]"
6,7.9,COc1cc2nc(C)nc(N[C@H](C)c3cccc(C(F)(F)C(C)(C)O)c3F)c2cc1OC[C@H]1CNCCO1 [Example 23]
7,7.5,"COc1cc2nc(C)nc(N[C@H](C)c3cccc(C(F)(F)C(C)(C)O)c3F)c2cc1OCCN(C)S(C)(=O)=O [Example 33, (R)—N-(2-((4-((1-(3-(1,1-Difluoro-2-hydroxy-2-methylpropyl)-2-fluorophenyl)ethyl)amino)-7-methoxy-2-methylquinazolin-6-yl)oxy)ethyl)-N-methylmethanesulfonamide]"
8,6.2,"COc1cc2nc(C)nc(N[C@H](C)c3cc(N)cc(C(F)(F)F)c3)c2cc1OC[C@@H](C)OC1COC1 [Example 68, N—((R)-1-(3-Amino-5-(trifluoromethyl)phenyl)ethyl)-7-methoxy-2-methyl-6-((R)-2-(oxetan-3-yloxy)propoxy)quinazolin-4-amine]"
9,6.2,"COc1cc2nc(C)nc(N[C@H](C)c3cc(N)cc(C(F)(F)F)c3)c2cc1OC[C@H](C)OC1COC1 [Example 69, N—((R)-1-(3-Amino-5-(trifluoromethyl)phenyl)ethyl)-7-methoxy-2-methyl-6-((S)-2-(oxetan-3-yloxy)propoxy)quinazolin-4-amine]"
10,5.2,"COCC1(COc2cc3c(N[C@H](C)c4cc(N)cc(C(F)(F)F)c4)nc(C)nc3cc2OC)COC1 [Example 43, (R)—N-(1-(3-Amino-5-(trifluoromethyl)phenyl)ethyl)-7-methoxy-6-((3-(methoxymethyl)oxetan-3-yl)methoxy)-2-methylquinazolin-4-amine]"
11,4.7,"COCC(COC)Oc1cc2c(N[C@H](C)c3cc(N)cc(C(F)(F)F)c3)nc(C)nc2cc1OC [Example 59, (R)—N-(1-(3-Amino-5-(trifluoromethyl)phenyl)ethyl)-6-((1,3-dimethoxypropan-2-yl)oxy)-7-methoxy-2-methylquinazolin-4-amine]"
12,4.2,"COc1cc2nc(C)nc(N[C@H](C)c3cc(N)cc(C(F)(F)F)c3)c2cc1OCCO[C@@H]1CCOC1 [Example 67, N—((R)-1-(3-Amino-5-(trifluoromethyl)phenyl)ethyl)-7-methoxy-2-methyl-6-(2-(((R)-tetrahydrofuran-3-yl)oxy)ethoxy)quinazolin-4-amine]"
13,3.3,"COc1cc2nc(C)nc(N[C@H](C)c3cc(N)cc(C(F)(F)F)c3)c2cc1OCCOC1CC1 [Example 7, (R)—N-(1-(3-amino-5-(trifluoromethyl)phenyl)ethyl)-6-(2-cyclopropoxy)-7-methoxy-2-meth ylquinazolin-4-amine]"
14,1.9,COc1cc2nc(C)nc(N[C@H](C)c3cc(N)cc(C(F)(F)F)c3)c2cc1OCCN(C)C1CC1 [Example 8]
